Data set [1] deals with T1, TMEM120A (Homo sapiens, UniProt Q9BXJ8).
T1 construct: expressed in transfected cells
T1 sequence (Q9BXJ8 1-343): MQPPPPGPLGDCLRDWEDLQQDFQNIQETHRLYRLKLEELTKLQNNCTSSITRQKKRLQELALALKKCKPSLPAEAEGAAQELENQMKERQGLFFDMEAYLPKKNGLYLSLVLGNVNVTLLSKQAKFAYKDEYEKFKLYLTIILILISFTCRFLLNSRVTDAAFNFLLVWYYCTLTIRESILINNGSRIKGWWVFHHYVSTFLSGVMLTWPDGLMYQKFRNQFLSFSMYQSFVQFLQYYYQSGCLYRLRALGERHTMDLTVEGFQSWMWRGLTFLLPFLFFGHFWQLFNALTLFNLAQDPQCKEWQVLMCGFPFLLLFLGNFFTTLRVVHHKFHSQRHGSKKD
In words: Cobalt precipitate accumulation in CHO cells stably expressing TMEM120A exposed to hypotonic media. It counts as cell-based. As to conditions: cells pretreated with blocker. The text has this:
In an embodiment, the assay comprises exposing CHO cells stably expressing TMEM120A (or controls) to hypotonic media. The membrane stretch caused by the swelling opens the channels, enabling the influx of calcium ions and other molecules such as cobalt if present in the media. Quantitating the ion channel activity after the cobalt enters the cells can comprise treating the cells with ammonium sulphide (1.2% Sigma # A1952), then fixing them with paraformaldehyde, then amplified through the silver enhancement method and measuring the amount of cobalt precipitate compared to a control.
CHO cells stably expressing TMEM120A (or controls) were exposed to hypotonic media. The membrane stretch caused by the swelling opens the channels, enabling the influx of calcium ions. In one alternative, calcium ions are substituted for cobalt After cobalt enters the cells, it is precipitated with ammonium sulfide, then the cells are fixed for example with paraformaldehyde, the precipitate is amplified through the silver enhancement method (by following steps provided by the commercial supplier, Sigma).

The subject of data set [2] is mechanically-activated slowly-adapting (SA) current. Particulars: sensory neurons; cited from earlier work.
Data set [3] relates to OA mice. In words: Behavioral pain score in the OA mouse model after injection of an MSC blocker. Particulars: injection around 28 days following MIA. It counts as in vivo. On the procedure:
(§1) Osteoarthritis is induced by injection of MIA (25 μg dissolved in 5 μl physiological saline) in the mouse knee joint. Control mice receive saline injection. The previously-described knee-bend test^28 is used to assess mechanical allodynia at the primary site of OA pain, as this test provides information regarding pain induced by movement of the affected joint^28 (FIG. 2a). Briefly, each test consists of 5 flexions and 5 extensions of the knee joint, and the total number of vocalization/struggle is recorded. The knee mechanical withdrawal threshold is determined with the Pressure Application Measurement (PAM) device, as previously described^132. Briefly, mice are gently restrained and a force transducer wrapped around the experimenter's thumb is pressed against the knee joint. […] Once the mouse withdraws its knee, the sensor identifies the maximum force applied before the withdrawal.
In an in vivo mouse OA model as described in Example 1, the OA mice further received around 28 days following injection of MIA an injection of a vehicle or either a toxin (GsMTx4 or gadolinium) blocking the MSCs.

For data set [4], the system named is MIA injected mice. In words: Knee flexion-extension pain score after intra-articular injection in MIA mice. It counts as in vivo, mouse. As to conditions: for analgesia, knee flexion-extension pain score: intra-articular. The method, then:
as §1
The GsMTx4 peptide sequence is […] (SEQ ID NO: 5). […] Moreover, it confirms that intra-articular injections can reach the nerve terminals of knee-innervating nociceptors. […] This indicates the analgesia is not due to the peptide leaking out of the joint to have a systemic effect. N=6-10 for GsMTx4 injections, N=9 for all groups in lidocaine trial.

In data set [5] the test system is TMEM120A. In words: shRNA knockdown of TMEM120A in kidney epithelial cells (mIMCD), mechanosensitivity. It counts as cell-based, mouse. Particulars: lentiviral particles. The method, then:
Knockdown was performed by infecting the cells in culture with lentiviral particles expressing an shRNA against TMEM120A and a puromycin resistance gene. This mean of selection enabled to identify cells that had taken up the shRNA. A quantitative polymerase chain reaction was then performed to verify that mRNA levels for TMEM120A were down. The shRNA sequence is […] TTTG (SEQ ID NO: 4).

For data set [6], the system named is cationic stretch-activated ion channels. Particulars: from the extracellular side; cited from earlier work.
The test system of data set [7] is MSC activity in knee-innervating nociceptors. In words: Outside-out patch recording of mechanically-evoked MSC current in knee-innervating nociceptors. Type of data set: cell-based, mouse. On the procedure:
Isolated mouse sensory neurons are obtained by enzymatic digestion of the dorsal root ganglia L3-L4 followed by mechanical dispersion. Joint-innervating neurons are identified by the presence of Fluorogold (FG), a retrograde tracer injected in the knee joint 72 hours prior to dissection. […] Transgenic mice that express the fluorescent protein TdTomato in nociceptors are generated by crossing Crerecombinase-dependent TdTomato reporter mice to Trpv1-Cre mice (FIG. 4). In this approach, recording can be made specifically from articular nociceptors (FG- and TdTomato-positive neurons).
Experiments are done for example 1 hour after plating the isolated neurons in petri dishes, or after 3 days in culture (for example for conducting siRNA experiments). Whole-cell^137,138 and cell-attached^100,102 recordings are obtained using glass pipettes mounted to amplifier headstages driven by motorized micromanipulators. Signals are amplified using multi-clamp 700B amplifiers. All experimental protocols, data acquisition and analysis are performed using the Clampex® and Clampfit™ software.
MSCs are activated using different approaches. In whole-cell recordings, a computer driven stimulating probe is brought near the cell membrane, then brief steps of 0.5 μm amplitude are made toward the cell at a 45 degree angle using a motorized 3-axis micromanipulator. In cell-attached recordings, brief pulses of negative pressure are applied through the recording electrode to increase membrane tension and evoke MSC opening. These pressure pulses are generated by a high-speed pressure clamp device previously validated^100,102.
An outside-out patch is formed and the minimal positive pressure (+P) is applied to open MSCs. 5 μM GsMTx4 is superfused and the protocol is run again. GsMTx4 is then washed and the same patch undergoes one final protocol run. […] Likewise, wash causes the recovery of the reduction (Kruskal-Wallis with Dunn's multiple comparisons, n=161, 85, 100 for control, GsMTx4 and wash, respectively.

In data set [8] the test system is OA mice. In words: Von Frey test of secondary mechanical allodynia after hindpaw injection. It counts as in vivo, mouse. The method, then:
Von Frey filaments are used to assess the secondary mechanical allodynia in the hindpaw (FIG. 2a). Mechanical withdrawal threshold is assessed by touching the plantar surface of the hindpaw with von Frey filaments using the up-down method as previously described^133. Positive withdrawals are counted as biting, licking and/or withdrawal of the paw during the 3 sec stimulus. In the knee-bend and PAM tests, MSC blockers are injected in the knee joint. In the von Frey test, they are injected in the intraplantar region.
To determine whether MSCs in nerve terminals at the primary site of the pathology (knee) contribute to mechanical allodynia in OA, the MSC blockers, GsMTx4 or gadolinium are injected in the knee joint of OA mice. Behavioral experiments include the knee-bend test^28 and the knee mechanical withdrawal test. To determine if MSCs contribute to secondary mechanical allodynia, GsMTx4 or gadolinium is injected in the ipsilateral hindpaw and assess secondary allodynia using the von Frey test. To determine whether these channels contribute to mechanosensitivity in the absence of allodynia, the blockers are injected in the knee joint or hindpaw of control mice.

Bounds are passed on as bounds.

Consider `[Gd]` [gadolinium], for which the “accumulation of cobalt precipitate on hypotonic stimuli” value in data set [1] is on record as “accumulation can be prevented”. In addition, the “block of SA current” value in data set [2] was “blocked”. In addition, the “pain level as measured by a behavioral score” value in data set [3] is on record as “significantly decreases the pain level”.

Take `CCN(CC)CC(=O)Nc1c(C)cccc1C` [lidocaine]: the percentage of analgesia result in data set [4] (5% in DMSO, intra-articular injection, vs vehicle) is “significantly larger percentage of analgesia compared to vehicle”.

As for `N.N.N.N.N.N.N.N.N.N.N.N.N.N.[Cl-].[Cl-].[Cl-].[Cl-].[Cl-].[Cl-].[O-2].[O-2].[Ru+3].[Ru+3].[Ru+4]` [ruthenium red], the “block of SA current” value in data set [2] is “blocked”.

Turning to “CCGGTTCCTGCTGGTCTGGTATTATCTCGAGATAATACCAGACCAGCAGGAATT TTTG (CCGGTTCCTGCTGGTCTGGTATTATCTCGAGATAATACCAGACCAGCAGGAATTTTTG; expressed or natural sequence) [shRNA against TMEM120A, short hairpin RNA against TMEM120A expressed from lentiviral particles]”, the mechanosensitivity entry in data set [5] is “reduces mechanosensitivity”.

Regarding “GCLEFWWKCNPNDDKCCRPKLKCSKLFKLCNFSF (listed as Grammostola spatulata) [GsMTx4]”, the “accumulation of cobalt precipitate on hypotonic stimuli” value in data set [1] is given as “accumulation can be prevented”. In data set [6], the “block of cationic stretch-activated ion channels” value is “block cationic stretch-activated ion channels”. In addition, the “analgesia, knee flexion-extension pain score” value is on record as “unable to produce analgesia” in data set [4] (5 μM) and “significant analgesia compared to vehicle” in data set [4] (50 μM, ipsilateral knee, vs saline). Moreover, the “analgesia, knee flexion-extension on the ipsilateral knee” value in data set [4] (50 μM injected in the contralateral knee) is “does not provide analgesia”. Also, in data set [7] (5 μM superfused, outside-out patch), the “mean open time of the channel” value is on record as “mean open time is also significantly reduced”. In data set [7] (5 μM superfused, outside-out patch, minimal positive pressure), the “mechanically-evoked current (normalized to control trace)” value was “significantly reduces the mechanically-evoked current”. For the same compound, in data set [7] (after wash of 5 μM GsMTx4), the “reversibility of current reduction on wash” value is given as “this reduction is recovered following wash”. The “block of SA current” value in data set [2] is “blocked”. Besides, the secondary allodynia entry in data set [8] (intraplantar injection 15 days after OA induction) was “significant and reversible attenuation of the secondary allodynia”. Besides, the “mechanical sensitivity (withdrawal threshold)” value in data set [8] (intraplantar injection, naïve mice) is “does not affect mechanical sensitivity”. Also, in data set [8] (ipsilateral hindpaw injection, MIA mice), the “duration of effect on mechanical hypersensitivity” value is no more than 24 h. In addition, the “pain level as measured by a behavioral score” value in data set [3] is “significantly decreases the pain level”.
